How the values were obtained:
BAF3 cells = assay: BAF3 Cell Proliferation Assay (CellTiter-Glo, without RET driven, IL-3); assay type: cell-based; details: Mus musculus; growth inhibition in BAF3 cells, 72 hours, with IL-3; read-out: BAF3 Cellular Activity
Method: Compounds disclosed herein were tested for the inhibition BAF3 cells proliferation without RET driven by CellTiter-Glo assay. In this assay, a complete media was prepared by adding 10% fetal bovine serum and 1 ng/ml IL-3 to RPMI-1640 medium (Life technology) for BAF3 cells. BAF3 cells were added to each of 88 wells of a 96 well plate at a seeding density of 2,000 cells/well/95 μL. The cells were allowed to attach to the plate by incubating at 37° C. for 24 hours. The compound was dissolved in DMSO (SIGMA). A solution of test compound was prepared in complete media by serial dilution to obtain the following concentrations: 200 μM, 66.7 μM, 22.2 μM, 7.4 μM, 2.5 μM, 0.82 μM, 0.27 μM, 0.091 μM and […]. The test compound solution (5 μL) was added to each of 80 cell-containing wells. The final concentrations of the compound were following: 10 μM, 3.33 μM, 1.11 μM, 0.37 μM, 0.12 μM, 0.041 μM, 0.014 μM, 0.0046 μM and 0.0015 μM. The final concentration of DMSO is 0.1%. To the 8 remaining cell-containing wells, only complete media (containing 0.1% DMSO) was added to form a control group in order to measure maximal proliferation. To the remaining 8 empty wells, complete media was added to for a vehicle control group in order to measure background. The plates were incubated at 37° C. for 72 hours. 50 μl of CellTiter-Glo® Reagent was added to each well. The contents were mixed for 2 minutes on an orbital shaker to induce cell lysis, and then were incubated at room temperature for 10 minutes to stabilize luminescent signal. Luminescence was recorded on Paradigm. Cell viability (CV %) was calculated relative to vehicle (DMSO) treated control wells. The IC50 was calculated using GraphPad Prism.

BAF3-KIF5B-RET cells = biological target: T1, BAF3-KIF5B-RET cells (Homo sapiens, UniProt P07949); assay: BAF3-KIF5B-RET Cell Proliferation Assay (CellTiter-Glo); assay type: cell-based; details: growth inhibition, 72 hours; Table 2; read-out: BA/F3-KIF5B-RET Cellular activity
T1 construct: fused on or other part: P33176 (Kinesin-1 heavy chain)
Method: Compounds disclosed herein were tested for the inhibition of RET by a cancer cell proliferation assay commonly known as CellTiter-Glo assay. In this assay, a complete media was prepared by adding 10% fetal bovine serum to RPMI-1640 medium (Life technology) for RET-driven cancer cells (BAF3-FIF5B-RET, Ba/F3-KIF5B-RET-G810R, Ba/F3-TEL-RET-M918T or Ba/F3-KIF5B-RET-V804M). Individual RET-driven type of cells were added to each of 88 wells of a 96 well plate at a seeding density of 2,000 cells/well/95 μL. The cells were allowed to attach to the plate by incubating at 37° C. for 24 hours. The compound was dissolved in DMSO (SIGMA). A solution of test compound was prepared in complete media by serial dilution to obtain the following concentrations: 20 μM, 6.67 μM, 2.22 μM, 0.74 μM, 0.25 μM, 0.082 μM, 0.027 μM, 0.0091 μM and 0.0030 μM. The test compound solution (5 μL) was added to each of 80 cell-containing wells. The final concentrations of the compound were following: 1 μM, 0.33 μM, 0.11 μM, 0.037 μM, 0.012 μM, 0.0041 μM, 0.0014 μM, 0.00046 μM and 0.00015 μM. The final concentration of DMSO is 0.1%. To the 8 remaining cell-containing wells, only complete media (containing 0.1% DMSO) was added to form a control group in order to measure maximal proliferation. To the remaining 8 empty wells, complete media was added to for a vehicle control group in order to measure background. The plates were incubated at 37° C. for 72 hours. 50 μl of CellTiter-Glo® Reagent was added to each well. Mix contents for 2 minutes on an orbital shaker to induce cell lysis. Incubate at room temperature for 10 minutes to stabilize luminescent signal. Record luminescence on Paradigm. Cell viability (CV %) was calculated relative to vehicle (DMSO) treated control wells. The IC50 was calculated using GraphPad Prism.

human RET kinase = biological target: T2, human RET kinase (Homo sapiens, UniProt P07949); assay: RET Kinase Assay (mobility shift assay, ATP at Km); assay type: biochemical; details: 23 μM ATP (Km), read-out: RET Enzymatic Activity
T2 construct: purchased Carna 08-159
Method: Compounds were tested by Mobility shift assay with ATP concentration at Km. The assay used human RET kinase (Carna 08-159). Test compounds were prepared and diluted in DMSO in 3-fold serial dilutions to 50× of the final testing concentrations. The compounds were then further diluted to 5× by the kinase reaction buffer (50 mM HEPES pH 7.5, 0.0015% Brij-35). The enzymatic reaction for compound testing was performed in a white 384-well polypropylene plate (Corning 3573) with a total reaction volume of 25 μl containing 7 nM RET, 3 μM peptide substrate FAM-P2 (GL Biochem 112394), and 23 μM ATP (Sigma A7699-1G). The assay started with loading RET diluted in kinase reaction buffer to wells, followed by addition of equal volume of 5× compounds for 15-min incubation at the room temperature for pre-treatment. The enzymatic reaction was initiated by addition of mixture of the substrate and ATP prepared in kinase reaction buffer. After incubation at 28° C. for one hour, 25 μl of stopper buffer (a mixture of 100 mM HEPES pH 7.5 buffer, 0.015% Brij-35, 50 mM EDTA and 0.2% of coating reagent 3 (Cliper Lifesciences)). After 30 minutes of incubation at room temperature, the plate was read in a Caliper. Percent of control was calculated as the percentage of compound-treated vs 2% DMSO vehicle-treated. The dose-response curves were generated and the IC50 values were calculated by nonlinear sigmoid curve fitting using XLFit.

human Aurora B kinase = biological target: T3, human Aurora B kinase (Homo sapiens, UniProt Q96GD4); assay: Aurora B Kinase Assay (mobility shift assay, ATP at Km); assay type: biochemical; details: 15 μM ATP (Km), read-out: AurB Enzymatic Activity
T3 construct: purchased Carna 05-102
Method: Compounds were tested by Mobility shift assay with ATP concentration at Km. The assay used human Aurora B kinase (Carna 05-102). Test compounds were prepared and diluted in DMSO in 3-fold serial dilutions to 50× of the final testing concentrations. The compounds were then further diluted to 5× by the kinase reaction buffer (50 mM HEPES pH 7.5, 0.0015% Brij-35). The enzymatic reaction for compound testing was performed in a white 384-well polypropylene plate (Corning 3573) with a total reaction volume of 25 μl containing 9 nM Aurora B, 3 μM peptide substrate FAM-P21 (GL Biochem 116370), and 15 μM ATP (Sigma A7699-1G). The assay started with loading Aurora B diluted in kinase reaction buffer to wells, followed by addition of equal volume of 5× compounds for 15-min incubation at the room temperature for pre-treatment. The enzymatic reaction was initiated by addition of mixture of the substrate and ATP prepared in kinase reaction buffer. After incubation at 28° C. for one hour, 25 μl of stopper buffer (a mixture of 100 mM HEPES pH 7.5 buffer, 0.015% Brij-35, 50 mM EDTA and 0.2% of coating reagent 3 (Cliper Lifesciences)). After 30 minutes of incubation at room temperature, the plate was read in a Caliper. Percent of control was calculated as the percentage of compound-treated vs 2% DMSO vehicle-treated. The dose-response curves were generated and the IC50 values were calculated by nonlinear sigmoid curve fitting using XLFit.

human KDR kinase = biological target: T4, human KDR kinase (Homo sapiens, UniProt P35968); assay: KDR Kinase Assay (mobility shift assay, ATP at Km); assay type: biochemical; details: 92 μM ATP (Km), read-out: KDR Enzymatic Activity
T4 construct: purchased Carna 08-191
Method: Compounds were tested by Mobility shift assay with ATP concentration at Km. The assay used human KDR kinase (Carna 08-191). Test compounds were prepared and diluted in DMSO in 3-fold serial dilutions to 50× of the final testing concentrations. The compounds were then further diluted to 5× by the kinase reaction buffer (50 mM HEPES pH 7.5, 0.0015% Brij-35). The enzymatic reaction for compound testing was performed in a white 384-well polypropylene plate (Corning 3573) with a total reaction volume of 25 μl containing 1.2 nM KDR, 3 μM peptide substrate FAM-P22 (GL Biochem 112393), and 92 μM ATP (Sigma A7699-1G). The assay started with loading RET diluted in kinase reaction buffer to wells, followed by addition of equal volume of 5× compounds for 15-min incubation at the room temperature for pre-treatment. The enzymatic reaction was initiated by addition of mixture of the substrate and ATP prepared in kinase reaction buffer. After incubation at 28° C. for one hour, 25 μl of stopper buffer (a mixture of 100 mM HEPES pH 7.5 buffer, 0.015% Brij-35, 50 mM EDTA and 0.2% of coating reagent 3 (Cliper Lifesciences)). After 30 minutes of incubation at room temperature, the plate was read in a Caliper. Percent of control was calculated as the percentage of compound-treated vs 2% DMSO vehicle-treated. The dose-response curves were generated and the IC50s were calculated by nonlinear sigmoid curve fitting using XLFit.

T2 sequence (P07949 29-1114): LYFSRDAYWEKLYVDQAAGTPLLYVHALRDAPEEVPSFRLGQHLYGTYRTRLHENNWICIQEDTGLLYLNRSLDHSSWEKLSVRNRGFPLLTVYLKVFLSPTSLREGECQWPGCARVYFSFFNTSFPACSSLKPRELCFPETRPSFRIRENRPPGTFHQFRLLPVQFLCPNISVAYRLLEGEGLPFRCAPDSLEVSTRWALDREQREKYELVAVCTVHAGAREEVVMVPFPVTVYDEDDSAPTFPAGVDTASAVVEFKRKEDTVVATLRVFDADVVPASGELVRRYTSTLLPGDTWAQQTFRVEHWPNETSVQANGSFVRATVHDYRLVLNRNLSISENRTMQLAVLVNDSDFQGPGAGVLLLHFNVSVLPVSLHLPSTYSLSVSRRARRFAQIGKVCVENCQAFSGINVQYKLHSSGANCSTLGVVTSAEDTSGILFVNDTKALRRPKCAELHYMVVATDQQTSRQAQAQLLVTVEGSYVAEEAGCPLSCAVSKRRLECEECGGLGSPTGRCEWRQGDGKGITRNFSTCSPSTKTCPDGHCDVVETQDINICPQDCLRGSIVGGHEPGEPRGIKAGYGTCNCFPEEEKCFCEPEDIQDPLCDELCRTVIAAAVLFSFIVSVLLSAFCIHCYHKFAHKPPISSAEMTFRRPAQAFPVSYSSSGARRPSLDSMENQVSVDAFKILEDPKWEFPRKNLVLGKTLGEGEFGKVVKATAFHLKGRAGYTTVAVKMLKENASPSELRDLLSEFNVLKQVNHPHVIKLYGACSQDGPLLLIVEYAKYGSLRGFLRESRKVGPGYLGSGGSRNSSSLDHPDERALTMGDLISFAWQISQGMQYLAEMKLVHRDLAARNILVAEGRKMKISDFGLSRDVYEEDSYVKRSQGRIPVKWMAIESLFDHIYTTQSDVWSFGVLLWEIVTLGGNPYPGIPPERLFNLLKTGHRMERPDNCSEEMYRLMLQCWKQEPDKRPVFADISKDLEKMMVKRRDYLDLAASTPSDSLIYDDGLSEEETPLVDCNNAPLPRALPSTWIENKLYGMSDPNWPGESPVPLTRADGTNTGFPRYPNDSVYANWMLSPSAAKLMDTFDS
T1 sequence (P07949 whole entry, change not shown, the tested form may be a part): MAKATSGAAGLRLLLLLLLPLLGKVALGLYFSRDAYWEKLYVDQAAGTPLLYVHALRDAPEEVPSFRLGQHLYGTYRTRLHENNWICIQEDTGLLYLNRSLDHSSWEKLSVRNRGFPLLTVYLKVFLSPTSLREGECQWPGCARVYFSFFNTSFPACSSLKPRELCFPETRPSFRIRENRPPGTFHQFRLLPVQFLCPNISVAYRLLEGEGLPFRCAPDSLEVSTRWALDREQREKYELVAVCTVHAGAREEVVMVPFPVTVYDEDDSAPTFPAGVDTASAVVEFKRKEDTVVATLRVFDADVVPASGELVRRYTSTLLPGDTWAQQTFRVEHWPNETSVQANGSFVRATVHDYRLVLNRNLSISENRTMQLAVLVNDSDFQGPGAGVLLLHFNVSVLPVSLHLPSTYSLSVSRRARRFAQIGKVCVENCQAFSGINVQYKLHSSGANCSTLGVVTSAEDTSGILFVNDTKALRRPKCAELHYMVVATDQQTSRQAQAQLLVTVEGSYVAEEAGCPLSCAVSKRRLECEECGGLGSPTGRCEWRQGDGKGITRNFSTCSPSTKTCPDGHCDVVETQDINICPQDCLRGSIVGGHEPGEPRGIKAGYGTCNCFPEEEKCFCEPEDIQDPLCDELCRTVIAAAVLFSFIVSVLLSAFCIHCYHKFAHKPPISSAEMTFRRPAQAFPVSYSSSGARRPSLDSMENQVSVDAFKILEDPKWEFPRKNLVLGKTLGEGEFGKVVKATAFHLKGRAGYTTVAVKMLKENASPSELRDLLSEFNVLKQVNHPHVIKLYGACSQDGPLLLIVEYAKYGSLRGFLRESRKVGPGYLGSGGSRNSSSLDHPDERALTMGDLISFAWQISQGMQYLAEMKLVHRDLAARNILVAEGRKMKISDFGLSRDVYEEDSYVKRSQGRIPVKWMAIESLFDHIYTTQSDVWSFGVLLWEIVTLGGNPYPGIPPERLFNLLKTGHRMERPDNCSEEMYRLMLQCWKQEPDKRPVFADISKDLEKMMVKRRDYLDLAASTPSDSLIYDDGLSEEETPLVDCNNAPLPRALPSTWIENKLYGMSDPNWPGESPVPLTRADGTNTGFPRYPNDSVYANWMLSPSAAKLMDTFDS
T3 sequence (Q96GD4 whole entry): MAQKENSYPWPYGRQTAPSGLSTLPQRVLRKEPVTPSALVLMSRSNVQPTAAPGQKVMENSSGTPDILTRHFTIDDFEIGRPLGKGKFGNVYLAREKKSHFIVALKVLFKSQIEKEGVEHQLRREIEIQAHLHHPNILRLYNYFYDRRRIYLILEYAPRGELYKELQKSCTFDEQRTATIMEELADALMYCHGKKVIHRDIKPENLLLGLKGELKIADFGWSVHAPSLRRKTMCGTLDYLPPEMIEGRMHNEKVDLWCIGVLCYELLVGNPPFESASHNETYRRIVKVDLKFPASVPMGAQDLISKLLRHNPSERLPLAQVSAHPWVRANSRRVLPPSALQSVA
T3 sequence (Q9NQS7 803-918 partner limits assumed): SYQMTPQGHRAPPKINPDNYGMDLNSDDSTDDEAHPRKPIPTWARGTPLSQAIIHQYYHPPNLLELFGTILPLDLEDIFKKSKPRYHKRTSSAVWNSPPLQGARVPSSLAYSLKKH
T4 sequence (P35968 20-1356): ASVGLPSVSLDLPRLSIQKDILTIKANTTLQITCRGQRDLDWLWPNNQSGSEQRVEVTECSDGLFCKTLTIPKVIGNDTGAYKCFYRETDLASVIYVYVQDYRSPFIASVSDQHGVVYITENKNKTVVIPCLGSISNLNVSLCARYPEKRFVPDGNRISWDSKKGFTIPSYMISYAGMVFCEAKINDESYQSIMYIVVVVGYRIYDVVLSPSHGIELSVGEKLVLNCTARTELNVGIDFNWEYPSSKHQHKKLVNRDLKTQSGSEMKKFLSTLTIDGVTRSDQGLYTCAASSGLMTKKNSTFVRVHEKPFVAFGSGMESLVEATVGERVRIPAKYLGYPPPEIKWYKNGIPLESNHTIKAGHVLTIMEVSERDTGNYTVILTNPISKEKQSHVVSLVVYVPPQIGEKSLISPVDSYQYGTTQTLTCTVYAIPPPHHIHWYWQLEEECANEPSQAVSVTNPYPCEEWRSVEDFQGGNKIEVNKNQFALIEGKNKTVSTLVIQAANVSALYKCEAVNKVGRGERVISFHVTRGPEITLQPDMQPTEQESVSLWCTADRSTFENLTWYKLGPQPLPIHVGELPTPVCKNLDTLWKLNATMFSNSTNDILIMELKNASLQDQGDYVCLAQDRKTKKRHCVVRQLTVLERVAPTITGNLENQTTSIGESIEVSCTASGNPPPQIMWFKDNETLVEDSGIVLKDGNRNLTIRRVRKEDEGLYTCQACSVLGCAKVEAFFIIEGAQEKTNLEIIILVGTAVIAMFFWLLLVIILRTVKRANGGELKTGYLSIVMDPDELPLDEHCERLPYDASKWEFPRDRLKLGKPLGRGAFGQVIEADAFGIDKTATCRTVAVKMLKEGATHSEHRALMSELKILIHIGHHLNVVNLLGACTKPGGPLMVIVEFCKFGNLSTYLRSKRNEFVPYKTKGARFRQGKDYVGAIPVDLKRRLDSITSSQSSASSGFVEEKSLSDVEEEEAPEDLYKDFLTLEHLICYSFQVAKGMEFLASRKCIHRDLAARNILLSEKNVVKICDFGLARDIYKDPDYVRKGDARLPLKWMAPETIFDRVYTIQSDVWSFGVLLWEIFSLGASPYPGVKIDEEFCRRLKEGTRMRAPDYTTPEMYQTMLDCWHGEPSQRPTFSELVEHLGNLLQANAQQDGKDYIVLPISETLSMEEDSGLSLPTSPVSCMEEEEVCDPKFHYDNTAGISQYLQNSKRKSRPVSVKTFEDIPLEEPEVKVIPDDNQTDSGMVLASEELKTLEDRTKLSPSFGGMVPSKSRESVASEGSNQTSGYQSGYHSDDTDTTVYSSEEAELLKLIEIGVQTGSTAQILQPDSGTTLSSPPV

IC50 (human KDR kinase) [nM] | SMILES | IC50 (BAF3 cells) [nM] | GI50 (BAF3-KIF5B-RET cells) [nM] | IC50 (human RET kinase) [nM] | IC50 (human Aurora B kinase) [nM]
– | COc1ccc(CN2C3CC2CN(c2ccc(-c4cc(-c5ccc(C(C)(C)O)nc5)cn5ncc(C#N)c45)cn2)C3)cn1 [Example 8, 6-(6-(2-hydroxypropan-2-yl)pyridin-3-yl)-4-(6-(6-((6-methoxypyridin-3-yl)methyl)-3,6-diazabicyclo[3.1.1]heptan-3-yl)pyridin-3-yl)pyrazolo[1,5-a]pyridine-3-carbonitrile] | 1050 | 1.4 | 0.38 | 45
4.2 | CC(C)(O)c1ccc(-c2cc(-c3ccc(N4C5CC6CC4CC(NC(=O)c4ncccc4Cl)(C6)C5)nc3)c3c(C#N)cnn3c2)nc1 [Example 23, 3-chloro-N-((1R,3S,5s,7s)-2-(5-(3-cyano-6-(5-(2-hydroxypropan-2-yl)pyridin-2-yl)pyrazolo[1,5-a]pyridin-4-yl)pyridin-2-yl)-2-azaadamantan-5-yl)picolinamide] | 1140 | 0.5 | 1.7 | –
– | COc1ccc(CN2C3CC2CN(c2ccc(-c4cc(-c5ccc(C6(O)CC6)cn5)cn5ncc(C#N)c45)cn2)C3)cn1 [Example 11, 6-(5-(1-hydroxycyclopropyl)pyridin-2-yl)-4-(6-(6-((6-methoxypyridin-3-yl)methyl)-3,6-diazabicyclo[3.1.1]heptan-3-yl)pyridin-3-yl)pyrazolo[1,5-a]pyridine-3-carbonitrile] | 3060 | 0.9 | 0.6 | 66.4
– | CCC(=O)c1ccc(-c2cc(-c3ccc(N4CC5CC(C4)N5Cc4ccc(OC)nc4)nc3)c3c(C#N)cnn3c2)nc1 [Example 37, 4-(6-(6-((6-methoxypyridin-3-yl)methyl)-3,6-diazabicyclo[3.1.1]heptan-3-yl)pyridin-3-yl)-6-(5-propionylpyridin-2-yl)pyrazolo[1,5-a]pyridine-3-carbonitrile] | 4460 | 1.2 | 0.7 | 138
– | COc1ccc(CN2C3CC2CN(c2ccc(-c4cc(-c5ncc(C(C)(C)O)cn5)cn5ncc(C#N)c45)cn2)C3)cn1 [Example 13, 6-(5-(2-hydroxypropan-2-yl)pyrimidin-2-yl)-4-(6-(6-((6-methoxypyridin-3-yl)methyl)-3,6-diazabicyclo[3.1.1]heptan-3-yl)pyridin-3-yl)pyrazolo[1,5-a]pyridine-3-carbonitrile] | 2670 | 2.2 | 0.4 | 183
– | COc1ccc(CN2C3CC2CN(c2ccc(-c4cc(-c5cc(C(C)(C)O)n(C)n5)cn5ncc(C#N)c45)cn2)C3)cn1 [Example 4, 6-(5-(2-hydroxypropan-2-yl)-1-methyl-1H-pyrazol-3-yl)-4-(6-(6-((6-methoxypyridin-3-yl)methyl)-3,6-diazabicyclo[3.1.1]heptan-3-yl)pyridin-3-yl)pyrazolo[1,5-a]pyridine-3-carbonitrile] | 2220 | 0.7 | 0.67 | 128
– | COc1ccc(CN2C3CC2CN(c2ccc(-c4cc(-c5cnc(C(C)(C)O)nc5)cn5ncc(C#N)c45)cn2)C3)cn1 [Example 10, 6-(2-(2-hydroxypropan-2-yl)pyrimidin-5-yl)-4-(6-(6-((6-methoxypyridin-3-yl)methyl)-3,6-diazabicyclo[3.1.1]heptan-3-yl)pyridin-3-yl)pyrazolo[1,5-a]pyridine-3-carbonitrile] | > 10000 | 30.5 | 3.5 | 743
– | CC(C)(O)c1ccc(-c2cc(-c3ccc(N4C[C@@H]5[C@@H](CNC(=O)c6ncccc6Cl)[C@@H]5C4)nc3)c3c(C#N)cnn3c2)nc1 [Example 5, 3-chloro-N-(((1R,5S,6s)-3-(5-(3-cyano-6-(5-(2-hydroxypropan-2-yl)pyridin-2-yl)pyrazolo[1,5-a]pyridin-4-yl)pyridin-2-yl)-3-azabicyclo[3.1.0]hexan-6-yl)methyl)picolinamide] | 516 | 3 | 0.8 | 19.5
